What was measured:
[1] = molecular target: T1, Leukotriene A-4 hydrolase (Homo sapiens, UniProt P09960)
T1 sequence (P09960 whole entry): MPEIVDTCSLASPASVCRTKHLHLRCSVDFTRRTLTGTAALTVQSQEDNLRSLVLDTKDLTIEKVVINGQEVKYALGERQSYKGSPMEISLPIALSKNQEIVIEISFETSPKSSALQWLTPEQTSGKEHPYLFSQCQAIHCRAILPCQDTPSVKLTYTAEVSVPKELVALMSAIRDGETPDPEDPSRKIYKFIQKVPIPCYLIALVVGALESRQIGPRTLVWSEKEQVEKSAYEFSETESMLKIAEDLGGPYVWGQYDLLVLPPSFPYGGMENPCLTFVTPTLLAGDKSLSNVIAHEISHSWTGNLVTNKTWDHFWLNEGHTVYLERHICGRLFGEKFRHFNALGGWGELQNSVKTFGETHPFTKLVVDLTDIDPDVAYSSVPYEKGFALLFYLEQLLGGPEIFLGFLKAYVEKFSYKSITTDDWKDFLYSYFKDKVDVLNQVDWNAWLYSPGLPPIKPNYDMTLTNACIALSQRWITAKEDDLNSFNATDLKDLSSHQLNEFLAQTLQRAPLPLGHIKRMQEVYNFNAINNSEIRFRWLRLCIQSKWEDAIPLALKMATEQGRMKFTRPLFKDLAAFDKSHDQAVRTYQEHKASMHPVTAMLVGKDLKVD

[2] = molecular target: T1, Leukotriene A-4 hydrolase; remark: listed apart in the source
[3] = Clearance in iv dosed rat; type: ADME, organism-based; conditions: in vivo
[4] = Half life in iv dosed rat; type: ADME, organism-based; conditions: in vivo
[5] = Metabolic stability in rat microsomes assessed as compound remaining after 1 hr; type: ADME, Microsome; conditions: read-out: Stability
[6] = Oral bioavailability in rat; type: ADME, organism-based; conditions: in vivo
[7] = molecular target: T1, Leukotriene A-4 hydrolase; remark: listed apart in the source

Structure (SMILES)	IC50 [1] [nM]	IC50 [2] [nM]	further results
CN(Cc1ccc(C(=O)O)cc1)C1CCN(CC(=O)Nc2ccc(Oc3ccccc3)cc2)CC1	260	490	
CN(CC(=O)Nc1ccc(Oc2ccccc2)cc1)C1CCCN(Cc2ccc(C(=O)O)cc2)CC1 (stereo not given)	380	160	
CN(CCCN(C)Cc1ccc(C(=O)O)cc1)CC(=O)Nc1ccc(Cc2ccccc2)cc1	70	3	
CN(CCCNCC(=O)Nc1ccc(Oc2ccccc2)cc1)Cc1ccc(C(=O)O)cc1	> 1000	330	
CN(CC(=O)Nc1ccc(Oc2ccccc2)cc1)C[C@@H]1CCCN1Cc1ccc(C(=O)O)cc1	200	100	
O=C(CN1CCCN(Cc2ccc(C(=O)O)cc2)CC1)Nc1ccc(Oc2ccccc2)cc1	180	70	
CN(CCCNCc1ccc(C(=O)O)cc1)CC(=O)Nc1ccc(Oc2ccccc2)cc1	420	19	
CN(Cc1ccc(C(=O)O)cc1)CC1CCCCN1CC(=O)Nc1ccc(Oc2ccccc2)cc1 (stereo in doubt; 4o)	60	16	
CN(CCCN(C)CC1CCC(C(=O)O)CC1)CC(=O)Nc1ccc(Oc2ccccc2)cc1 (stereo not given)	430	25	
CN(CCCN(C)CC(=O)Nc1ccc(Oc2ccccc2)cc1)CCc1ccc(C(=O)O)cc1	80	3	
CN(Cc1ccc(C(=O)O)cc1)CC1CCCCN1CC(=O)Nc1ccc(Oc2ccccc2)cc1 (stereo in doubt; 4n)	100	17	
CN(Cc1ccc(C(=O)O)cc1)C1CCCN(CC(=O)Nc2ccc(Oc3ccccc3)cc2)CC1 (stereo not given)	220	140	
O=C(CN1CC2CC1CN2Cc1ccc(C(=O)O)cc1)Nc1ccc(Oc2ccccc2)cc1 (stereo not given)	240	44	
CN(CCCN(C)Cc1ccc(C(=O)O)cc1)CC(=O)Nc1ccc(Oc2ccc(Cl)cc2)cc1	90	17	
CN(CCCN(C)Cc1ccc(C(=O)O)cc1)CC(=O)Nc1ccc(Oc2ccc(-c3ncco3)cc2)cc1	60	5	
CN(CCCN(C)Cc1ccc(C(=O)O)o1)CC(=O)Nc1ccc(Oc2ccccc2)cc1	440	28	
CN(Cc1ccc(C(=O)O)cc1)CC1CCCN1CC(=O)Nc1ccc(Oc2ccccc2)cc1 (stereo in doubt; 4r)		26	IC50 [7]: 60 nM
CN(CCCN(C)Cc1ccc(C(=O)O)cc1F)CC(=O)Nc1ccc(Oc2ccccc2)cc1	160	7	
CN(C)CCCN(C)CC(=O)Nc1ccc(Oc2ccccc2)cc1	135	160	remaining at 1 h [5]: < 33%
CN(Cc1ccc(C(=O)O)cc1)CC1CCCN1CC(=O)Nc1ccc(Oc2ccccc2)cc1 (stereo in doubt; 4s)	60	17	
CN(CCCN(C)Cc1ccc(C(=O)O)cc1)CC(=O)Nc1ccc(Oc2ccc(F)cc2)cc1	120	6	
CN(CCCN(C)Cc1ccc(C(=O)O)cc1)CC(=O)Nc1ccc(OCC(O)c2ccccc2)cc1 (stereo not given)	210	19	
CN(CCN(C)Cc1ccc(C(=O)O)cc1)CC(=O)Nc1ccc(Oc2ccccc2)cc1	140	15	

The next lines start with results.

IC50 [1] [nM]	IC50 [2] [nM]	Structure (SMILES)	further results
120	6	CN(CCCN(C)Cc1ccc(C(=O)O)cc1)CC(=O)Nc1ccc(Oc2ccccc2)cc1	clearance [3]: 38 mL/min/kg; half-life [4]: 0.9 h; remaining at 1 h [5]: > 90%; bioavailability [6]: 45%
> 1000	370	O=C(CNCCCNCc1ccc(C(=O)O)cc1)Nc1ccc(Oc2ccccc2)cc1	
220	57	CN(CC(=O)Nc1ccc(Oc2ccccc2)cc1)C1CCN(Cc2ccc(C(=O)O)cc2)C1 (stereo in doubt; 4u)	
340	6	CN(CCCN(C)Cc1ccc(C(=O)O)c(F)c1)CC(=O)Nc1ccc(Oc2ccccc2)cc1	
230	18	CN(CCCCC(=O)O)CCCN(C)CC(=O)Nc1ccc(Oc2ccccc2)cc1	
30	7	CN(CC(=O)Nc1ccc(Oc2ccccc2)cc1)C[C@H]1CCCN1Cc1ccc(C(=O)O)cc1	clearance [3]: 28 mL/min/kg; half-life [4]: 2.6 h; bioavailability [6]: 45%
290	15	CN(CCCN(C)Cc1ccc(C(=O)O)cc1[N+](=O)[O-])CC(=O)Nc1ccc(Oc2ccccc2)cc1	
230	16	CN(CCCN(C)Cc1ccc(C(=O)O)cc1)CC(=O)Nc1ccc(Oc2ccccc2F)cc1	
180	120	CN(CC(=O)Nc1ccc(Oc2ccccc2)cc1)C1CCN(Cc2ccc(C(=O)O)cc2)C1 (stereo in doubt; 4t)	
250	4	CN(CCCN(C)Cc1ccc(-c2nnn[nH]2)cc1)CC(=O)Nc1ccc(Oc2ccccc2)cc1	
> 1000	33	CN(CCCN(C)Cc1ccc(S(N)(=O)=O)cc1)CC(=O)Nc1ccc(Oc2ccccc2)cc1	
350	90	CN(CCCN(C)Cc1ccccc1)CC(=O)Nc1ccc(Oc2ccccc2)cc1	remaining at 1 h [5]: < 33%
> 1000	1000	O=C(CN1CCN(Cc2ccc(C(=O)O)cc2)CC1)Nc1ccc(Oc2ccccc2)cc1	
1500	110	CN(CCCC(=O)O)CCCN(C)CC(=O)Nc1ccc(Oc2ccccc2)cc1	
360	10	CN(CCCN(C)Cc1ccc(C(=O)O)c(Br)c1)CC(=O)Nc1ccc(Oc2ccccc2)cc1	

— ChEMBL document CHEMBL1155105, “Synthesis of N-alkyl glycine amides as potent inhibitors of leukotriene A4 hydrolase” (Bioorg Med Chem Lett, 2008)
